We go through 30 molecules from ChEMBL document CHEMBL1201862, “PubChem BioAssay data set” (2004).

“And” between values parts separate entries of the source, which are not always exact repeats. Equal entries are not always repeated. The source made the active and inactive calls.

The nature of series [1]: Shn3 3'UTR reporter inhibitors, dose response, cell-based, Clone20 osteoblasts, firefly luciferase, cherry-picked (AID 624132).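 Note: firefly luciferase luminescence from reporter carrying the Shn3 3'UTR in osteoblasts.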 Format: functional.
A short description of series [2]: off-target signal loss in HeLa-CEM21 co-culture – HeLa F-luc CTL cells, cherry-picked, counter-screen for HIV-1 Env fusion inhibitor project, dose response (AID 652040).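 Note: potency for signal decrease marking cytotoxic or nonspecific inhibition.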 Format: functional, cell-based.
A short description of series [3]: ZM109 Env clade C HIV-1 fusion inhibitors, dose response, HeLa effector, CEM target cells, luciferase, cherry-pick (AID 652058). Format: functional, cell-based.
A short description of series [4]: inhibitors of HIV Env-driven cell fusion, dose response, cherry-pick (AID 652057). Format: functional, cell-based.
Series [5] can be described thus: inhibitors of clade B AD8 Env fusion, dose response, cell-based, cherry-pick (AID 652062).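 Note: luciferase signal from cell-cell fusion driven by HIV-1 clade B AD8 Env; potency is for inhibitors of fusion seen as a drop in luminescence.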 Format: functional.
In series [6] the target is FAD-linked sulfhydryl oxidase ALR (Homo sapiens, UniProt P55789). As to the kind of experiment: inhibitors of human ALR sulfhydryl oxidase, dose response, biochemical, H2O2 detection, luminescence, cherry-pick (AID 493248).
For series [7], the target named is Induced myeloid leukemia cell differentiation protein Mcl-1 (Homo sapiens, UniProt Q07820). Format: functional.
Series [8] has as its system Streptococcus. Kind of series: Group A Streptococcus viability loss, dose response, counter-screen for streptokinase expression inhibitor project, luminescence, BacTiterGlo (AID 1915).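 Note: potency for reduction of bacterial viability or growth.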 Format: functional, organism-based. On the technique in general: A counterscreen serves to expose hits that act by an unwanted route or on another target.
Series [9] relates to Streptococcus sp. 'group A'. As to the kind of experiment: growth inhibition of control SK(-) GAS strain, dose response, counter-screen for streptokinase expression inhibitor project, luminescence, kanamycin, BacTiterGlo, confirmation (AID 1900). Format: functional, organism-based.
The target of series [10] is T1, Streptokinase A (Streptococcus pyogenes serotype M1, UniProt P10520).
T1 sequence (P10520 whole entry): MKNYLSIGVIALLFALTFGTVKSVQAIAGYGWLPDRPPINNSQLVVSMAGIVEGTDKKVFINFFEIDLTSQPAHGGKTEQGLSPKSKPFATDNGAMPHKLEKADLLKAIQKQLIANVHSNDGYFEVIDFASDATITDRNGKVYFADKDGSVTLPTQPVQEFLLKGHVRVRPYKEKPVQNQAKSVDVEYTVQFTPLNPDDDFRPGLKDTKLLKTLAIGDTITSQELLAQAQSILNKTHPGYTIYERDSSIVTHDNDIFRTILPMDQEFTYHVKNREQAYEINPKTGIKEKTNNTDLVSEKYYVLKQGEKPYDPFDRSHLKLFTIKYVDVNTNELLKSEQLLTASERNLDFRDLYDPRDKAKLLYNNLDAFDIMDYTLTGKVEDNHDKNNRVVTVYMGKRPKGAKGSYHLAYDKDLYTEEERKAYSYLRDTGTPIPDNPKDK
As to the kind of experiment: S. pyogenes streptokinase expression inhibitors, potency, dose response, plasminogen activation absorbance, OD405 (AID 1914).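 Note: secreted streptokinase activity via plasminogen activation per viability signal from cell pellet.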 Format: functional, Streptococcus pyogenes M1 GAS.

Series [11] has as its target T2, DNA repair protein RAD52 homolog (Homo sapiens, UniProt P43351).
T2 sequence (P43351 whole entry): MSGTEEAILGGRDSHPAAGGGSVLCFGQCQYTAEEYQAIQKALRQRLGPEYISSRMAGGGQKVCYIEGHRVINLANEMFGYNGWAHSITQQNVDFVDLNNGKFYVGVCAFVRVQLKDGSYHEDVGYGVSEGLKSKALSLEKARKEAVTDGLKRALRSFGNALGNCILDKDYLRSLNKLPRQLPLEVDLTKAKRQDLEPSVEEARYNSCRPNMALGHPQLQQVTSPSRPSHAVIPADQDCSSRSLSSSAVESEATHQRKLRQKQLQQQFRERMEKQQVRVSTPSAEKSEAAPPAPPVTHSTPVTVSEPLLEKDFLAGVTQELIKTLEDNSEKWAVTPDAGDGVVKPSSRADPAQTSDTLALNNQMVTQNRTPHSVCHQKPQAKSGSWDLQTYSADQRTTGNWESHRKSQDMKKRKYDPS
Format: functional, biochemical.

Series [12] addresses Cytochrome P450 2C19 (Homo sapiens, UniProt P33261). As to the kind of experiment: Cytochrome panel assay with activity outcomes. Panel member name: p450-cyp2c19 Compounds with AC50 equal or less than 10 uM are considered active. Format: functional. The following applies: read-out: AC50.
The target of series [13] is Cytochrome P450 2C9 (Homo sapiens, UniProt P11712).
In series [14] the target is Cytochrome P450 2D6 (Homo sapiens, UniProt P10635).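 Note: CYP2D6 member of a cytochrome P450 panel assay.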
In series [15] the test system is Vero. As to the kind of experiment: cells. Format: functional. The following applies: Chlorocebus sabaeus.
The target of series [16] is T3, Cytochrome P450 1A2 (Homo sapiens, UniProt P05177).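 Note: PubChem cytochrome P450 panel assay, CYP1A2 panel member.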
T3 sequence (P05177 whole entry): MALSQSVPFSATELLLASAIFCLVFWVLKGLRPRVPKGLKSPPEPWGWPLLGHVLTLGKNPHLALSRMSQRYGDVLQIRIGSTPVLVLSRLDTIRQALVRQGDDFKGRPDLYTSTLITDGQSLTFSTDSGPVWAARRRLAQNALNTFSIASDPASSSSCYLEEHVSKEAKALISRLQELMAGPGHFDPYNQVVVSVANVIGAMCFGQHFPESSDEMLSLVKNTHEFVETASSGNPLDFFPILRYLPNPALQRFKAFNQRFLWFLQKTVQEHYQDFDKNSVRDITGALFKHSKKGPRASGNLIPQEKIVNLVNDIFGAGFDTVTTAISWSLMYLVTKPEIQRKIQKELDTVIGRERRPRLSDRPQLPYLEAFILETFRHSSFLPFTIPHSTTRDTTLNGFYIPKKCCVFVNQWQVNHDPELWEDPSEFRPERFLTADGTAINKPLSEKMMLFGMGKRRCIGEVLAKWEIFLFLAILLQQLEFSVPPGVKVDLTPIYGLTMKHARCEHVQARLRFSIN

The test system of series [17] is H9c2. Kind of series: cells. Format: functional, cell-based. Conditions: Rattus norvegicus, H9c2, Myocardium.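 Note: confirmatory concentration-response retest of ultra-high-throughput screening hits for modulation of myocardial damage; cell death induced by hydrogen peroxide oxidative stress; compound pretreatment for 60 min then peroxide exposure for 2 h; potency is for protecting the cells against peroxide damage rather than for killing them.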
Series [18] has as its target Cytochrome P450 3A4 (Homo sapiens, UniProt P08684).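 Note: CYP3A4 tested as one member of a cytochrome P450 panel screen.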
The target of series [19] is T4, Heat shock factor protein 1 (Mus musculus, UniProt P38532).
T4 sequence (P38532 whole entry): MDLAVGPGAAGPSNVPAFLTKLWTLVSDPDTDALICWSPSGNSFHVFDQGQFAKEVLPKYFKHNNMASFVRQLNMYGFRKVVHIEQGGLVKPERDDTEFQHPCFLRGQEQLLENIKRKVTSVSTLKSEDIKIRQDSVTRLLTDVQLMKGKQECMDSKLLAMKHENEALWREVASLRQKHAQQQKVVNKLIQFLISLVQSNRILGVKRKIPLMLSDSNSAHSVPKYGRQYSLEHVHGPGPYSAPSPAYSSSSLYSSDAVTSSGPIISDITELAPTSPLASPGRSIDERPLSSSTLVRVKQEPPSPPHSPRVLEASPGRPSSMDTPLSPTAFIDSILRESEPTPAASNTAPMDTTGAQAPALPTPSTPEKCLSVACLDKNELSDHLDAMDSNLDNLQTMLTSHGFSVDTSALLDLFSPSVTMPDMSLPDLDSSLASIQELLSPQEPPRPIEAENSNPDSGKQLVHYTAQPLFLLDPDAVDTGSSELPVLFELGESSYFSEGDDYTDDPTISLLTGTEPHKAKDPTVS
Kind of series: HSF1 potentiators in luciferase reporter cells, confirmation, cell-based, NIH3T3, luminescence, dose retest (AID 435004).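 Note: stress induced by proteasome inhibitor MG132 added 30 min after compound; luciferase reporter driven by HSF1 response element in NIH3T3 cells; actives raise luminescence as potentiators of the MG132 stress response.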 Format: functional.

The target of series [20] is Fatty acid synthase (Homo sapiens, UniProt P49327). As to the kind of experiment: FAS thioesterase domain inhibitors, dose response, biochemical, kinetic fluorescence intensity (AID 624326).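 Note: rate of fluorescence rise from hydrolysis of a fluorogenic O-methyl fluorescein ester substrate.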 Format: functional.
Chain of Fatty acid synthase (P49327 whole entry, the tested form may be a part): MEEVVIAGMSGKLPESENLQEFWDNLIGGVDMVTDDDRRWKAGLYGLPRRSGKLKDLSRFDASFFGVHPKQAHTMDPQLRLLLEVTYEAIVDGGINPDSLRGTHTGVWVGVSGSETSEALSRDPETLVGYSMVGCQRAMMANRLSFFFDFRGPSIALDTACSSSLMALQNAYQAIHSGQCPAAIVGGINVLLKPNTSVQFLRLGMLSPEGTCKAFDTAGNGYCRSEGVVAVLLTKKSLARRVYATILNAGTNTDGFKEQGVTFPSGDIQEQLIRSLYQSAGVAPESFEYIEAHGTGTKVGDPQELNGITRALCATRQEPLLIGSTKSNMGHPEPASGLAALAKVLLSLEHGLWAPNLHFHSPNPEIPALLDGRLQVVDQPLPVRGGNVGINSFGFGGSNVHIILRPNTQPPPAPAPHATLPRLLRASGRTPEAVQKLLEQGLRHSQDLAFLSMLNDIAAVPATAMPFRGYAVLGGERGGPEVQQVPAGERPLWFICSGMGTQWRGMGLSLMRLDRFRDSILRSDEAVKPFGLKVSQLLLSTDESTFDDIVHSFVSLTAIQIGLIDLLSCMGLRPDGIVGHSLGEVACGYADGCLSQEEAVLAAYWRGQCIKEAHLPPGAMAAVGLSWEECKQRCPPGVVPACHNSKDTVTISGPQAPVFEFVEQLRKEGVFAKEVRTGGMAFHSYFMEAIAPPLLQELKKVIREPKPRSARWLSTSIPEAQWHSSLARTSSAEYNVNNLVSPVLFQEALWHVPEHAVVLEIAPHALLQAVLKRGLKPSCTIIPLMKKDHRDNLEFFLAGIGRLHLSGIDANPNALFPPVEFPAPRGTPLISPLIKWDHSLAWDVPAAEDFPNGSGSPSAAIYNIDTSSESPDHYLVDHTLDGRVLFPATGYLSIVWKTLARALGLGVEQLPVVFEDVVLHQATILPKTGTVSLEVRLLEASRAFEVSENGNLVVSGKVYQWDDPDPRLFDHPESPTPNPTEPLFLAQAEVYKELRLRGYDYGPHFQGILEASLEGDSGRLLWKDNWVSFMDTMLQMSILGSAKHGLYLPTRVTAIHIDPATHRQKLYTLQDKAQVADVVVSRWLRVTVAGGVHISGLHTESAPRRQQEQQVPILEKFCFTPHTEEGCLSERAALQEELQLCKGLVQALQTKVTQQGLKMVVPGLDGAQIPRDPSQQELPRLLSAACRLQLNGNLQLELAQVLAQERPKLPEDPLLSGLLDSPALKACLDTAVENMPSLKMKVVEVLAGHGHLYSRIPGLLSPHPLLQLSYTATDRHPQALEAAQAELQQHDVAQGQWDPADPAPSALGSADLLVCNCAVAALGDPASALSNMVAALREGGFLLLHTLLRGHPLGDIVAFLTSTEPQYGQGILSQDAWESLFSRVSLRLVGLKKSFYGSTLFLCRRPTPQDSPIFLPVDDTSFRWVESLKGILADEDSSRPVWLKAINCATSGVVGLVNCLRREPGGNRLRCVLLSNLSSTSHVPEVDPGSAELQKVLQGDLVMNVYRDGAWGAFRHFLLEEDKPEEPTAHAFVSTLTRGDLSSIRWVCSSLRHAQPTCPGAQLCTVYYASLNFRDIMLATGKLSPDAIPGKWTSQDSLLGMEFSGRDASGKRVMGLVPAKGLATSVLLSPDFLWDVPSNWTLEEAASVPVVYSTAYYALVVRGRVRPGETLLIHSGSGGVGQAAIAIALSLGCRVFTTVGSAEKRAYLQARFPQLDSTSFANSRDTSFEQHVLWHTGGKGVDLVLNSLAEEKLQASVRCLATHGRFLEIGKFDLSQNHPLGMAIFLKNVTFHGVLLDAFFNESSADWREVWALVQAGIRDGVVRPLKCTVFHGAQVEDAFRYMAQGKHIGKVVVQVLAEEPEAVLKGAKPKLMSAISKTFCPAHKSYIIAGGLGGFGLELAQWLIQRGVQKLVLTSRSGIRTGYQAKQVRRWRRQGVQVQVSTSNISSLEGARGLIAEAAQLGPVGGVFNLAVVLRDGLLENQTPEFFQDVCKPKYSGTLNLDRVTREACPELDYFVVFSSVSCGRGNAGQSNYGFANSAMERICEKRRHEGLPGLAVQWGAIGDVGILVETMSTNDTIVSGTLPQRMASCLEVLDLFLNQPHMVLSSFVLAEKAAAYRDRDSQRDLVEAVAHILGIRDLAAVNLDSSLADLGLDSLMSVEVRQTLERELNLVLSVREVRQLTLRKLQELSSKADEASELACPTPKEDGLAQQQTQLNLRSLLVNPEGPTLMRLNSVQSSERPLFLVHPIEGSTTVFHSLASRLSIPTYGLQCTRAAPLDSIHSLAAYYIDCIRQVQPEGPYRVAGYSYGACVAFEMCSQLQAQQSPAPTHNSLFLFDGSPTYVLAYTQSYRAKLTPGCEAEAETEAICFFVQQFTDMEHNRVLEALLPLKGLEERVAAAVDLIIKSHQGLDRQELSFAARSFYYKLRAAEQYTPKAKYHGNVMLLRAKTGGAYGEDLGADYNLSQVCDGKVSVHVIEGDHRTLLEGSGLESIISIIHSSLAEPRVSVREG

Chain of Cytochrome P450 2D6 (P10635 whole entry): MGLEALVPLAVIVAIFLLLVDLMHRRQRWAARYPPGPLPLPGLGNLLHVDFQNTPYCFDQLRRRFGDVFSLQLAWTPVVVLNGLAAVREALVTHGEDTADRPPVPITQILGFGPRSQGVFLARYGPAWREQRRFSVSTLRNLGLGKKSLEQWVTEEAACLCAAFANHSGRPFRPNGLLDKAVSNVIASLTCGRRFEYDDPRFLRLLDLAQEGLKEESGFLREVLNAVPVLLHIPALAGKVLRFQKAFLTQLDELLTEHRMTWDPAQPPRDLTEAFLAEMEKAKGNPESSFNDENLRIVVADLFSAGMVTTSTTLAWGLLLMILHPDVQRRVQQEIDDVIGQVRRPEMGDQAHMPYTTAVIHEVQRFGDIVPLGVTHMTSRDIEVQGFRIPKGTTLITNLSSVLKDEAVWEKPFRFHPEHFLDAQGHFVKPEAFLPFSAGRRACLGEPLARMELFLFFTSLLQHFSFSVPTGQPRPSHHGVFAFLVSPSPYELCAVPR
Chain of Cytochrome P450 2C19 (P33261 whole entry): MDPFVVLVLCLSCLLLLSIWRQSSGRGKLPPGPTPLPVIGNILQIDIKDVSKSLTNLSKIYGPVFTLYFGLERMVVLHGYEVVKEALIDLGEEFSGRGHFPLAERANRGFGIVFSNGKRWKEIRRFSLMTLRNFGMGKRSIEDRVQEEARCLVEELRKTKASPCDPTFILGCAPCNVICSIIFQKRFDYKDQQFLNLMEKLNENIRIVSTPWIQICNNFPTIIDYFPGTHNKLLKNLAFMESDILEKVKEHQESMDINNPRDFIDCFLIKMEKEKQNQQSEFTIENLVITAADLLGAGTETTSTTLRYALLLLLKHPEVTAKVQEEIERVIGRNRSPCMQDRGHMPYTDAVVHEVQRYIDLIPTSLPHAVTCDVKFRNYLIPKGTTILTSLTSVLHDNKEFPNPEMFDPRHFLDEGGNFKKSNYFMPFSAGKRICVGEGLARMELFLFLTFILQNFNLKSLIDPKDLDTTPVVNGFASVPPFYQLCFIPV
Chain of FAD-linked sulfhydryl oxidase ALR (P55789 whole entry): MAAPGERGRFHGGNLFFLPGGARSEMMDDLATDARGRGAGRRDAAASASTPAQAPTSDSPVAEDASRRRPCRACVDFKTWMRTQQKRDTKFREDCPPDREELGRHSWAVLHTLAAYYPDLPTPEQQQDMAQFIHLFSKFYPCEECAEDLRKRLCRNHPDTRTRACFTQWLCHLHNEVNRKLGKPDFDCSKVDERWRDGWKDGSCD
Chain of Cytochrome P450 2C9 (P11712 whole entry): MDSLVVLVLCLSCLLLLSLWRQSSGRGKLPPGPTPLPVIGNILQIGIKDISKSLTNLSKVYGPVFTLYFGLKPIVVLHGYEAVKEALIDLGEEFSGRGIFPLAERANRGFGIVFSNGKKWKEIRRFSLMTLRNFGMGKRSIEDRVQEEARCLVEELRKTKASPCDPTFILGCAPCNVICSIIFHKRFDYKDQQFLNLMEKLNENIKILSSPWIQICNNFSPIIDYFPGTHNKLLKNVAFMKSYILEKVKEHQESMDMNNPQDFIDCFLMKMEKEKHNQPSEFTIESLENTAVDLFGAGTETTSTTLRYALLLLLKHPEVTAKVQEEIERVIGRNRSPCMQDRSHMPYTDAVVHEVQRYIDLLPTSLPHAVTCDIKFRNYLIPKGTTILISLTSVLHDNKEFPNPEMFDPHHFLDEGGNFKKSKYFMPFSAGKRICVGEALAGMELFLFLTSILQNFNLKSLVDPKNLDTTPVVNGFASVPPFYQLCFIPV
Chain of Induced myeloid leukemia cell differentiation protein Mcl-1 (Q07820 whole entry): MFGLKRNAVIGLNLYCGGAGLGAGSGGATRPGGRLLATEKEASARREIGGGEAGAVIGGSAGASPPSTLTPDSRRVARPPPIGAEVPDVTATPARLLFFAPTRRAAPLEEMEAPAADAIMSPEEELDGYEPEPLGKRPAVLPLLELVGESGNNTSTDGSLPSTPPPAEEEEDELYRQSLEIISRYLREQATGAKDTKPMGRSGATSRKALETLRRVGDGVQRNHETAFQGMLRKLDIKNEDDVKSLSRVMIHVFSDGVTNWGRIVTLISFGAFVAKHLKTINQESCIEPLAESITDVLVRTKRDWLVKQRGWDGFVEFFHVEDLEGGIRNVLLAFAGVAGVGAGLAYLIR
Chain of Cytochrome P450 3A4 (P08684 whole entry): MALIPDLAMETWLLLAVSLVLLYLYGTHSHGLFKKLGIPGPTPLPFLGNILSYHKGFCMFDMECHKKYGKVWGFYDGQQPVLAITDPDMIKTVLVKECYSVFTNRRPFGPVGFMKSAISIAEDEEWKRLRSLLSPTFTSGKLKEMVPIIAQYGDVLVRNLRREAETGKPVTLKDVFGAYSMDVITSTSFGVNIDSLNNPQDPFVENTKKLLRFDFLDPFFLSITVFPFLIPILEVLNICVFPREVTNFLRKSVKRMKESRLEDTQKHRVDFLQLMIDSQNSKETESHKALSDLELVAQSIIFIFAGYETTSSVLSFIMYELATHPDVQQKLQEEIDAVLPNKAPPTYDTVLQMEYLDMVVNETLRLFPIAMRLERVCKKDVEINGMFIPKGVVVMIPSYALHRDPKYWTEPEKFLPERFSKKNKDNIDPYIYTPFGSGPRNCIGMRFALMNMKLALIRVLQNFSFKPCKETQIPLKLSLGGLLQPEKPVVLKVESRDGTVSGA

What is called AC50 is the midpoint of the concentration-response curve, whichever way the signal moves. In the case of `CCC(C)[C@H]1CN=C(S)N1CCc1cc(C(F)(F)F)cc(C(F)(F)F)c1` (stereo not given in full), the AC50 in series [1] is 21.6 µM (active).
Consider `O=C(Nc1cc(Cl)cc(Cl)c1)C(c1ccccc1)N1CCCCC1` (stereo not given), for which the AC50 in [2] is 7.36 µM (active); in series [3] it was 8.47 µM (active); in series [4] it was 3.35 µM (active).
Turning to `O=C(NCC(F)(F)F)[C@@H]1c2ccccc2C(=O)N(CC23CC4CC(CC(C4)C2)C3)[C@H]1c1ccc(CO)cc1`, the AC50 in series [5] is 2.43 µM (active); in [4] it was 0.304 µM (active).
As to `COC(=O)Cc1ccc(O)c(N)c1`, the AC50 in series [6] is 21.6 µM (active).
As usually defined, the IC50 is the concentration at which inhibition is half-maximal. Usually EC50 stands for the concentration that produces a half-maximal response. Take `O=C(Nc1ccc2[nH]c(-c3ccc4[nH]cnc4c3)nc2c1)c1cccs1`: the IC50 in series [7] was 7.21 µM (active). Besides, the EC50 was 48.4 µM (inconclusive) in series [8], > 150 µM (not active) in series [9] and > 150 µM (not active) in series [10].
As to `COc1ccc(C2N(S(=O)(=O)c3ccc(C)cc3)CCN2S(=O)(=O)c2ccc(C)cc2)cc1`, the AC50 is 6.47 µM (active) in series [2], 4.68 µM (active) in series [5], 0.715 µM (active) in series [3] and 3.05 µM (active) in [4].
In the case of `CN1CC[C@@H]2CN[C@H](c3ccccc3Br)C[C@@H]21`, in [11], the AC50 is 4.58 µM (active).
Regarding `Cn1c(C(=O)NCCCN2CCN(c3ccccc3F)CC2)cc2c(O)nc3ccccc3c21`, the AC50 in series [2] is 24.5 µM (active); in series [5], 8.93 µM (active); in [3] it was 10.3 µM (active); in [4], 2.82 µM (active).
For the molecule `Cc1ccc(/C=C2\SC(=S)N(Cc3ccccc3)C2=O)o1`, the IC50 in [7] is 3.76 µM (not active).
Consider `CC(C)CC#Cc1ccc2c(c1)O[C@@H](CN(C)S(=O)(=O)c1ccc(F)cc1)[C@@H](C)CN([C@H](C)CO)S2(=O)=O`, for which the results for the half-maximal activity concentration (AC50) in [5], in series [3] and in series [4] were 10.2 µM (active), 10.1 µM (active) and 19.6 µM (active), respectively.
In the case of `Cc1cnc(CNc2ncnc3ccc(-c4ccccc4CN(C)C)cc23)cn1`, the results for the AC50 in [12] and in series [13] were 31.6 µM (inconclusive) and “inconclusive”, respectively.
Consider `CN(C)CCNC(=O)c1cccc(-c2cnc3c(NC=O)cc(-c4cc(F)c(F)c(F)c4)cn23)c1`, for which the half-maximal activity concentration (AC50) in series [11] is 7.21 µM (active).
As for `Cc1ccc(-c2nnn(CC(=O)N(CC3CCCO3)C(C(=O)NC3CCCCC3)c3ccc(F)cc3)n2)o1` (stereo not given), the AC50 in [2] was 1.27 µM (active); in [5], 2.56 µM (active); in [3], 2.45 µM (active); in [4], 0.79 µM (active).
For `Cc1nn(C(=O)CN2C(=O)c3ccccc3C2=O)c(C)c1Br`, the AC50 is 4.47 µM (inconclusive) in series [12], “inconclusive” in series [13] and 7.08 µM (inconclusive) in [14].
On to `CCOc1ccc(NC(=O)N(CCN2CCOCC2)Cc2ccc3c(c2)CCCN3CC)cc1`, for which the IC50 in series [7] is 0.852 µM (active).
As for `O=C(O)CCc1ccc(-c2ccccc2)n1NC(=O)c1sc2ccccc2c1Cl`, the AC50 in series [6] is 1.72 µM (active).
Usually CC50 stands for the concentration at which the toxic effect on the cells reaches its halfway point. On to `Nc1c(C(=O)Nc2ccc(Br)cc2)sc2nc(N3CCOCC3)c3c(c12)CCCC3`, for which the 50% cytotoxic concentration (CC50) in [15] is > 25 µM (active).
`C[C@@H]1NC(=O)[C@H](CCCN=C(N)N)NC(=O)c2cc([N+](=O)[O-])cc(I)c2NCCC[C@@H](C(N)=O)NC1=O`: the AC50 in [11] was 12.3 µM (active).
In the case of `COc1ccc(C2CC(c3cccc(F)c3)=NN2c2ccc(S(N)(=O)=O)cc2)cc1` (stereo not given), in [15], the CC50 is > 25 µM (active).
On to `C1=C(c2ccco2)N2CCN=C2S1`, for which, in series [6], the AC50 is 2.33 µM (active).
In the case of `COc1ccc(CCNC(=O)CCC(=O)N2CCOc3ccc(Cl)cc32)cc1OC`, in series [1], the AC50 was > 70 µM (inactive).
Regarding `C[N+](C)(C)CC(=O)N/N=C/c1c2ccccc2cc2ccccc12`, in series [11], the AC50 was 4.16 µM (active).
As for `O=S(=O)(c1cccc2c(Cl)cccc12)N1CCCNCC1`, the AC50 in [16] was 15.8 µM (inconclusive) and 31.6 µM (inconclusive); in series [13], “inconclusive”; in [14], 39.8 µM (inconclusive) and 25.1 µM (inconclusive).
Consider `Oc1cccc2c(O)nccc12`, for which the figures for the AC50 in [16], in series [18] and in [13] were 15.8 µM (inconclusive), 25.1 µM (inconclusive) and “inconclusive”, respectively. The IC50 in [17] is 31.3 µM (inactive).
As to `Sc1[nH]cnc2c3cc(Cl)ccc3nc1-2`, the AC50 in [2] is 2.35 µM (active); in [4], 3.37 µM (active).
Consider `COc1cc(COCC(O)CN2CCN(CCN3C(=O)c4cccc5cccc(c45)C3=O)CC2)cc(OC)c1OC` (stereo not given), for which the AC50 in [11] is 3.54 µM (active). Also, in [19], the EC50 was 59.2 µM (active).
For `CCN(CC(=O)NCc1cccs1)S(=O)(=O)c1ccc([N+](=O)[O-])cc1`, the IC50 in [20] is 17.7 µM (active).
With `COc1cccc(NC(=O)NNC(=O)CCc2ccc(O)c(O)c2)c1`, in series [6], the half-maximal activity concentration (AC50) was 3.12 µM (active).
In the case of `CCOC(=O)N1CCN(C(=O)CN(C)S(=O)(=O)c2ccc3c(c2)C(C)(C)C(=O)N3C)CC1`, the half-maximal activity concentration (AC50) in series [12] was 3.16 µM (inconclusive); in series [13], “inconclusive”.
For the molecule `Cc1cc(C(=O)OCC(=O)NCCCN2CCCC2=O)c2ccccc2n1`, the figures for the AC50 in series [16], in series [12] and in [13] were 14.1 µM (inconclusive), 35.5 µM (inconclusive) and “inconclusive”, respectively.
